Results as given in PMC12002301, “Discovery and functional characterization of a bombesin-type neuropeptide signaling system in an invertebrate” (Proceedings of the National Academy of Sciences of the …, 2025).

Tested on: ArBNR2(G272)
Test: Luminescence (GFP-aequorin Ca2+) assay, CHO-K1 cells coexpressing ArBNR2(G272) and Gqs5
Assay type: cell-based, Asterias rubens
Conditions: words, up to 10^-5 M
Text: Having identified ArBN and ArBN5-14 as peptides that are naturally derived from ArBNP in A. rubens, we then sought to identify receptors that these peptides may act as ligands for. BLAST analysis of transcriptome/genome data identified eleven candidate BN-type receptors, which we refer to as ArBNR1-11. Homologs of this family of proteins were also identified in other echinoderms. […] Accordingly, a modified form of ArBNR2 in which the glutamate residue at position 272 is substituted with glycine, ArBNR2(G272), also has seven predicted transmembrane domains (SI Appendix, SI Methods). […]
domains and other structural features (9). The topology of […] of the potential A. rubens BN-type receptors as predicted by Protter V1.0 comprised seven transmembrane domains, as expected for a GPCR. However, the topology of the proteins encoded by contig 1110162 and contig 1110464 comprised only six and four transmembrane domains, respectively. Analysis of the transcript […]
To determine the complete open reading frame of ArBNR2, contig 1110162 was used as a query for blastx analysis of A. rubens genome sequence data on NCBI and accession no. […] The protein (XP_033631283.1 referred to henceforth as ArBNR2) was analysed using […]
Having discovered that MgBNR2 has the expected topology for a GPCR when analysed using both Protter and DeepTMHMM, we then compared its sequence to ArBNR2. […]

Row | Substance | peptide-induced luminescence
1 | EPMPSSLALYIANLSP-NH2 [ArBNP65-81, C-terminally amidated 16-residue peptide predicted to be derived from residues 65 to 81 of ArBNP] | did not trigger luminescence
2 | NYNRVFGPTY-NH2 [ArBN5-14, C-terminally amidated 10-residue peptide corresponding to the C-terminal region of ArBN] | did not trigger luminescence
